Results on 13 compounds are retold here after US11730712B2, “Functionalized long-chain hydrocarbon mono- and di-carboxylic acids and derivatives thereof, and their use for the prevention or treatment of disease” (ESPERVITA THERAPEUTICS, INC., priority 2021, dated 2023).

Bounds are passed on as bounds.

For data set [1], the system named is mouse primary hepatocytes. Put plainly: 14C-acetate incorporation into total lipids in primary mouse hepatocytes. Format: cell-based. To be noted: 4-hour period; for IC50: Hepatocyte, read-out: IC50 in μM, inhibition of 14C-acetate incorporation in total lipids. The method, then: After perfusion, collagen digested liver cells were re-suspended in William's E media (11 mM glucose) (Gibco) supplemented with 10% fetal bovine serum (FBS) (Gibco), 2 mM L-glutamine (Gibco) and 1% Antibiotic-Antimycotic (Gibco) mixture and seeded in white opaque 96-well plates. On the following day, the cells were serum-starved for 2 hours, then treated with 0 μM, 0.1 μM, 0.3 μM, 0.5 μM, 1 μM, 3 μM, 10 μM, and 100 μM of Compound I-32, Compound I-1, or Compound III-1 or Reference Compound (e.g., Compounds A-E and bempedoic acid) in the presence of ^14C-Acetate (1 μCi/ml, PerkinElmer). Each of Compound I-32, Compound I-1, Compound III-1, and Reference Compound was solubilized in 100% DMSO to a final concentration of 100 mM stock solution. In the experimental condition, the stock solution was diluted in serum free media (William's E media (11 mM glucose) (Gibco), 2 mM L-glutamine (Gibco) and 1% Anti biotic-Antimycotic) to yield the desired concentration of each compound. […] After 4 hours of treatment, the plates were washed two times with PBS (×1) and 100 μL microscint fluid (Microscint O, part #601361) was added in each well. Plates were wrapped with aluminum foil and were shaken at 250 rpm for 2 h. After 2 h of shaking, ^14C incorporation into lipid was determined by liquid scintillation counting using a TopCount NXT Microplate Scintillation and Luminescence Counter (Perkin Elmer).
The effects of Compound I-32. Compound I-1, and Compound III-1 on mouse primary hepatocyte lipogenesis are represented in Table 1. Each Compound was assayed at a concentration of 0 μM (vehicle control), 0.1 μM, 0.3 μM, 0.5 μM, 1 μM, 3 μM, 10 μM, and 100 μM, unless otherwise noted. Statistically significant inhibition was determined by one-way ANOVA and Dennett's post hoc test where appropriate. […] IC50 values were determined by nonlinear regression. All statistical analyses were carried out using GraphPad Prism 8 software. A p-value of less than or equal 0.05 was considered significant.

Another data set has as its target T1, Human ACC1 (Homo sapiens, UniProt Q13085).
T1 construct: FLAG (C); His (C); purchased BPS Biosciences 50202; host or cells: Baculovirus infected Sf9 cells
Put plainly: ACC1 enzymatic assay (ADP-Glo). Format: biochemical. To be noted: recombinant human ACC1 5 nM, 10 μM ATP, 10 μM acetyl CoA; Run 1-3; read-out: Compound IC50 (M) ACC1. The method, then: (§1) Human ACC1 (Cat#50202 Lot #120830) and ACC2 (Cat #50201 Lot #160217) were obtained from BPS Biosciences, San Diego, Calif. 92121. Human ACC1 had C-terminal flag and His-tags with a MW of 270 KDa after purification from Baculovirus infected Sf9 cell expression system and came as a solution in 50 mM Tris-HCl, pH 8.0, 500 mM NaCl, 10% glycerol, 1 mM DTT, 100 μg/ml FLAG peptide with 70% purity. The stock concentration was 0.25 mg/ml corresponding to 0.926 μM. Human ACC2 was also purified from Baculovirus infected Sf9 expression system. […] The stock concentration was 0.1 mg/ml corresponding to 0.36 μM. The assay buffer for measuring the activity of ACC contained: 30 mM HEPES (pH 7.4), 2 mM MgCl2, 0.01% Brij35, 2 mM DTT, 1% DMSO (solvent for compound). For ACC1 and ACC2 assays, the following concentrations of substrate and cofactors were used: 12 mM NaHCO3, 10 μM acetyl CoA, 10 μM ATP, and 2 mM K-citrate. The recombinant human enzyme was used at 5 nM for ACC1 and 1 nM for ACC2. In brief, enzyme alone in the above buffer without substrate was used for background. All test materials were dissolved in 100% DMSO using acoustic technology (Echo550). The prepared solution was preincubated for 15 min followed by the addition of 5 μL/well of ADP standard. ATP was then added to start the reaction. The assay contents were spun and briefly shaken followed by incubation at room temperature for 1 h. At the end of completion of assay, 5 μL of ADP-Glo was added to each well to stop the reaction. The contents were mixed, spun and incubated at room temperature for 40 min followed by the addition of 10 μL/well of ADP detection reagent. The contents were spun, mixed and covered with plastic to measure luminescence. […] The light generated, measured in a luminometer, correlates to the amount of ADP generated in the ACC assay, which is indicative of ACC activity.
(§2) The enzyme concentrations for ACC1 and ACC2 were 5 nM and 1 nM, respectively.
Data represent nM or μM ADP produced, % Activity (relative to no inhibitor controls), and curve fits were performed by GraphPad Prism software. The IC50 concentration-response curves were generated for both the ACC1 and ACC2 assays using recombinant human ACC.

The next data set concerns the target T2, Human ACC2 (Homo sapiens, UniProt O00763).
T2 construct: FLAG (C); His (C); purchased BPS Biosciences 50201; host or cells: Baculovirus infected Sf9 cells
Nature of the data set: ACC2 enzymatic assay (ADP-Glo). In kind it is biochemical. The conditions noted are these: recombinant human ACC2 1 nM, 10 μM ATP, 10 μM acetyl CoA; Run 1-3; read-out: Compound IC50 (M) ACC2. The method, then: as §1, §2
Data represent nM or μM ADP produced, % Activity (relative to no inhibitor controls), and curve fits were performed by GraphPad Prism software. […]

Data set [2] concerns Acyl-CoA synthetase activity in rat liver microsomes. Put plainly: Synthesis of CoA derivatives in rat liver microsomes (LCMS). The conditions noted are these: 1 mM substrate, 30 min sample vs 0 min.
Method: Prior to the experiment a 1 mM working stock was created in primary hepatocyte media which was used to create the final dilution series of 0 (vehicle), 0.3, 1, 3, 10, and 30 μM. The final concentration of DMSO in all samples was <1%.
For initial validation of ACS activity using palmitate, 14C-palmitate was added (0.5 μCi/ml). Each sample was equilibrated at 37° C. while shaking for 10 min before the reaction was initiated by the addition of 0.04 mg of rat microsomal preparation (ThermoFisher Scientific. Cat #RTM-CPL, Lot #RT060-A) followed by incubation for 1, 3, 10, or 30 mins. Time 0 sample with no added microsomes was used as a control. The reaction was stopped by immediately placing the reaction tube on ice followed by the rapid addition of the reaction mixture to 2.25 ml ice-cold isopropanol/heptane/2M-sulfuric acid (40:10:1, vol/vol) in a 5 ml glass vial. […] For studies that involved measurement of 14C Palmitoyl-CoA formation, 200 μl of the lower aqueous phase was added to the 5 ml of scintillation fluid and the number of DPMs were determined by liquid scintillation counting for 5 minutes using a LS6500 Liquid Scintillation Counter (Beckman Coulter). […]
The reaction products were ionized by electrospray ion source (ESI) in positive mode. […] The resulting mass spectra were analyzed using the Xcalibur 2.1 Qualitative software package. […]
The subject of data set [3] is Hepa1-6 murine hepatoma cells. Put plainly: Colony formation assay (clonogenic survival, 7 days). In kind it is cell-based. To be noted: Mus musculus, Hepa1-6, 168 h, read-out: Hepa1-6 (IC50), anti-clonogenic activity. The method, then:
(§3) Colony formation assay. Hep3B and Hepa1-6 cells were seeded in 12-well plates at a cell density of 1000 and 500 cells/well, respectively. On day 2, media in each well was aspirated and replaced with 1000 μl of fresh complete media and cells were treated with or without the respective drugs in an increasing concentration followed by the incubation of the cells for 7 days in an incubator.
(§4) On day 9, the media in each well was aspirated and cells were fixed with 10% formalin (500 μl) for 10 minutes at room temperature. Formalin was aspirated and the plates were washed with 1×PBS and stained with crystal violet for another 10 minutes. After 10 minutes of staining, crystal violet was […] the cells, rinsed with tap water for three times and the plates were dried overnight. Next day, colonies (>50 cells) were counted and analyzed.
(§5) Statistical tests. Results were indicated as mean±standard deviation (SD). All line graphs were prepared using Graph Pad Prism 8 software. Proliferation and clonogenics IC50 values were calculated using a non-linear regression model in Graph pad Prism 8.

The test system of data set [4] is Hep3B human hepatocarcinoma cells. The description is as above. In kind it is cell-based. The conditions noted are these: 168 h, read-out: Hep3B (IC50), anti-clonogenic activity. The method, then:
as §3, §4, §5

Data set [5] deals with Hepa1-6 murine hepatoma cells. Put plainly: Cell proliferation assay (presto blue, 72 h). In kind it is cell-based, mouse. The conditions noted are these: Mus musculus, Hepa1-6, 72 h; read-out: Hepa1-6 (IC50), anti-proliferation activity. The method, then: (§6) Cell cultures. Hep3B (ATCC) and Hepa1-6 (ATCC) cells were seeded in 96-well plates at a density of 3000 cells/well with complete media. On day 2, media in each well was aspirated and replaced with 100 μl of fresh complete media and cells were treated with or without Compound I-1, Compound I-32, Compound I1-84, and Compound I-85, in a concentration dependent manner. Then, cells were incubated in an incubator for 72 h. On day 5, 10 μl of presto blue (Invitrogen, cat #A13261) cell viability reagent was added in each 96-well plate and incubated at 37° C. for 1-2 h. After incubation, fluorescence was measured with an excitation/emission wavelength of 560/590 nm.
(§7) Proliferation assay. Hep3B (ATCC) and Hepa1-6 (ATCC) cells were seeded in 96-well plates at a density of 3000 cells/well with complete media. On day 2, media in each well was aspirated and replaced with 100 μl of fresh complete media and cells were treated with/without testing compounds in a concentration dependent manner. Then, cells were incubated in an incubator for 72 h. On day 5, 10 μl of presto blue (Invitrogen, cat #A13261) cell viability reagent was added in each 96-well plate and incubated at 37° C. for 1-2 h. After incubation, fluorescence was measured with an excitation/emission wavelength of 560/590 nm. Anti-proliferative combination effects of Compound I-1 or Compound I-32 and regorafenib were determined in Hep3B and Hepa1-6 cells. Drug combination interaction was determined by the Chou-Talalay method (23), which is based on well-known equations for different reaction sequences and mechanisms, and different types of inhibition. These equations provide the theoretical basis for the combination index (CI)-isobologram equation that allows quantitative determination of drug interactions, where CI<1, =1, and >1 indicate synergism, additive effect, and antagonism, respectively. CI is calculated based on in vitro measurements implemented in the Compusyn software (www.combosyn.com), a platform for drug combinations pharmacodynamics with automated simulations. The software calculates CI based on the Fractional Inhibition (Fa), which is the potency expressed by the average effect values for each drug concentrations as determined by in vitro experiments. The dose-effect data entries are utilized for automated computerized analysis by the Compusyn software.
(§8) Data entered was obtained by in vitro experiments performed as follows: Hep3B or Hepa 1-6 cells were plated in a 96-well format and cell proliferation rates were determined as described above. Cells were treated with 5 doses of each test agent alone at the following concentrations: compounds of the invention dosed at 1, 5, 10, 50, or 100 μM for both Hep3B and Hepa1-6 cells, regorafenib dosed at 0.015, 0.075, 0.15, 0.75, and 1.5 μM for Hep3B cells or 0.05, 0.25, 0.5, 2.5, 5 μM for Hepa 1-6 cells. […]. Data are shown as Fa-CI plots where CI is the combination index and Fa is fractional inhibition. Results were indicated as mean±standard deviation (SD). All bar diagrams and line graphs were prepared using Graph Pad Prism 8 software. Drug synergy was calculated using the CompuSyn software.
(§9) Methods: Hep3B cells (supplied by ATCC) and Hepa1-6 cells (supplied by ATCC) were seeded in 96-well plates at a density of 3000 cells/well with complete media. On day 2, the media in each well was aspirated and replaced with 100 μL of fresh complete media, and the cells were treated in a concentration dependent manner with either Compound I-1, Compound I-32, Compound I-84, Compound I-85, sorafenib, lenvatinib, Compound I-1 in combination with sorafenib. Compound I-1 in combination with lenvatinib, Compound I-32 in combination with sorafenib, or Compound I-32 in combination with lenvatinib. The cells were then incubated in an incubator at 37° C. for 72 h. On day 5, 10 μL of presto blue (Invitrogen, cat #A13261) cell viability reagent was added to each 96-well plate and incubated at 37° C. for 1-2 h. […]

The test system of data set [6] is Hep3B human hepatocarcinoma cells. Put plainly: Cell proliferation assay (presto blue, 72 h). To be noted: Homo sapiens, Hep3B, 72 h; read-out: Hep3B (IC50), anti-proliferation activity. In kind it is cell-based. The method, then: as §6, §7, §8, §9

T2 sequence (O00763 whole entry): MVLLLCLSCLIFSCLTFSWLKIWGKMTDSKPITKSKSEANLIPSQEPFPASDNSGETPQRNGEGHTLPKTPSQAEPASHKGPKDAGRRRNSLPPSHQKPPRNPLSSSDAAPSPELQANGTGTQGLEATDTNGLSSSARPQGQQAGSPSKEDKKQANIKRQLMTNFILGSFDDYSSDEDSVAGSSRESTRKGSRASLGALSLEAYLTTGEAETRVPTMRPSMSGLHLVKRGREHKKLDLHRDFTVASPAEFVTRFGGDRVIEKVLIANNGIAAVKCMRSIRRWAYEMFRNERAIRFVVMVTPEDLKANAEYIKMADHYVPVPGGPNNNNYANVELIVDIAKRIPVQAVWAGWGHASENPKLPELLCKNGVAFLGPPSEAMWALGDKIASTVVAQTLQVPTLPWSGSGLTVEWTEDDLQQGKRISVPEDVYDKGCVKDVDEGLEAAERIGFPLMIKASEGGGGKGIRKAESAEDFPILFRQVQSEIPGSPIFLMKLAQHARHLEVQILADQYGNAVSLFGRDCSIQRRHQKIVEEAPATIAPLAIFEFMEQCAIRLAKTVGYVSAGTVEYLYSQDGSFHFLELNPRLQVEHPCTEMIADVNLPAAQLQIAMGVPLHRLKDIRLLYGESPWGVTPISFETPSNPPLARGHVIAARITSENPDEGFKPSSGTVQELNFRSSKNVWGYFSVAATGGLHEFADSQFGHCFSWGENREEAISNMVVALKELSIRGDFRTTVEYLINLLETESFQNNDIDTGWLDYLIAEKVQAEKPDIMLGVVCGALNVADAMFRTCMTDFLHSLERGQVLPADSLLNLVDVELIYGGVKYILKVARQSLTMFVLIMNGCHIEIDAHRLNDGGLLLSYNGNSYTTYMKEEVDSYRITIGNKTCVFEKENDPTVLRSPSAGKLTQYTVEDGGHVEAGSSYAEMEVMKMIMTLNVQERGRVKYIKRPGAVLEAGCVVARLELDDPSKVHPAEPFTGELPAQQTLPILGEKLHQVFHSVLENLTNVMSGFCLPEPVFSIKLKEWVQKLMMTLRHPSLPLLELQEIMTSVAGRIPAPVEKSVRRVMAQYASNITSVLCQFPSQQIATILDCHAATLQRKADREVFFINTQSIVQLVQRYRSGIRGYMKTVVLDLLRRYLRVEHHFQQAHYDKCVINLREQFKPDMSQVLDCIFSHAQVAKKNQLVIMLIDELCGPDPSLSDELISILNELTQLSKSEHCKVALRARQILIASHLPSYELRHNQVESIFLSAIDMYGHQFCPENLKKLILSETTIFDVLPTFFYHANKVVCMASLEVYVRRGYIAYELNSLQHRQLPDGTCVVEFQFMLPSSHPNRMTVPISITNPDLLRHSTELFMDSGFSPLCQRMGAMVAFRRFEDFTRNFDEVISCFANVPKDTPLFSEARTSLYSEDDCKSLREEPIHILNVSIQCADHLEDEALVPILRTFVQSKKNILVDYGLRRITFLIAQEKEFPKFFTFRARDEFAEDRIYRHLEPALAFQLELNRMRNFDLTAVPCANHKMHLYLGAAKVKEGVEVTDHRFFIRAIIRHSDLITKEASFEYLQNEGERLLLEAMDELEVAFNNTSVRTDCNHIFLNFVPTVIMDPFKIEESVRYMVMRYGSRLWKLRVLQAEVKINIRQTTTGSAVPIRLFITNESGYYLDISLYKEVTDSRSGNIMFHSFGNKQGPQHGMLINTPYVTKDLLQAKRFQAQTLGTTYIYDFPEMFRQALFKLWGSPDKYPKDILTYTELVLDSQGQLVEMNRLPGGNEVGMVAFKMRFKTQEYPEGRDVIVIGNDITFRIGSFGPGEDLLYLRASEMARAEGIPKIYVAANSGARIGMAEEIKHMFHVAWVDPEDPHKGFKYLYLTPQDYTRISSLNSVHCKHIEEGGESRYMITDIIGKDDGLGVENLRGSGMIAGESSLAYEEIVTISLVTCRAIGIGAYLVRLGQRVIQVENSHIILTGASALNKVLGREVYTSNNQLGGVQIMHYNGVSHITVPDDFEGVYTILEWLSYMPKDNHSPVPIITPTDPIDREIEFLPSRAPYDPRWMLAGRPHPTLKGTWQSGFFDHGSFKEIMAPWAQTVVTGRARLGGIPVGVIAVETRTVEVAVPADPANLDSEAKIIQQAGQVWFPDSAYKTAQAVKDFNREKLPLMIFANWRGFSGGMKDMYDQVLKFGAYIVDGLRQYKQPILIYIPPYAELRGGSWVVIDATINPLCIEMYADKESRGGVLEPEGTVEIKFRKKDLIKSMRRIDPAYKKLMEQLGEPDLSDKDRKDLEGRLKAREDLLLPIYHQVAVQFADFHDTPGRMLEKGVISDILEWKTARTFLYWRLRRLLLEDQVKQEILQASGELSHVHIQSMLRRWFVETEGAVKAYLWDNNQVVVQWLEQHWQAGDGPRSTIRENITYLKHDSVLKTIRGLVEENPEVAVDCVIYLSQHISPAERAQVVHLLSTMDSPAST

`CC(C)(CO)CCCCC(=O)CCCCC(C)(C)CO` [A]: the IC50 in data set [1] came to 73.2 µM. The same measure, in the same setting: with `CC(C)(CCCCCC(O)CCCCCC(C)(C)C(=O)O)C(=O)O` [BA, Bempedoic acid] the figure was 0.68 µM.

In the case of `CC(C)(CCCCC(=O)CCCCC(C)(C)C(=O)O)C(=O)O` [B], in data set [1], the “% change from control at 100 μM ± SEM(n), 14C-acetate incorporation in total lipids” value was −69 ± 2.3 (n = 4) % and the IC50 was 25.6 µM. Turning to `O=C(c1c2ccccc2cc2ccccc12)N1CCC(N2CCC[C@@H](C(=O)N3CCOCC3)C2)CC1` [CP 640186, reference compound], the figures for the IC50 at Human ACC1 and on Human ACC2 were 2.14e-06 M and 7.81e-08 M, respectively. As for `CC(C)(CCCCCC(=O)CCCCCC(C)(C)C(=O)O)C(=O)O` [C], in data set [1], the IC50 turned out to be 0.46 µM. Take `CC(C)(CCCc1ccccc1CCCC(C)(C)C(=O)O)C(=O)O` [Compound I-61, 5-[2-(4-Carboxy-4-methylpentyl)-phenyl]-2,2-dimethylpentanoic acid]: in data set [1], the “% change from control at 100 μM ± SEM(n), 14C-acetate incorporation in total lipids” value was “+44 ± 8.1 (n = 4) %”. As for `CC(C)(CCCc1ccccc1CCCC(C)(C)C(=O)SCCNC(=O)CCNC(=O)[C@H](O)C(C)(C)COP(=O)(O)OP(=O)(O)OC[C@H]1O[C@@H](n2cnc3c(N)ncnc32)[C@H](O)[C@@H]1OP(=O)(O)O)C(=O)O` [Compound I-61-CoA, 5-[2-(4-Carboxy-4-methylpentyl)-phenyl]-2,2-dimethylpentanoic acid Coenzyme A ester], the “formation of the CoA derivative, detection by LCMS” value in data set [2] is reported as “could not be confirmed using fragmentation analysis”.

Take `CC(C)(CCCCc1ccc(CCCCC(C)(C)CC(=O)O)cc1)CC(=O)O` [Compound I-84, 7,7′-(1,4-phenylene)bis(3,3-dimethylheptanoic acid)]: the IC50 in data set [3] was 64.9 µM; in data set [4] it was 50.1 µM; in data set [5], over 100 µM; in data set [6] it was over 100 µM. Take `CC(C)(CCCCc1cccc(CCCCC(C)(C)CC(=O)O)c1)CC(=O)O` [Compound I-85, 7,7′-(1,3-phenylene)bis(3,3-dimethylheptanoic acid)]: the IC50 in data set [3] is 61 µM; in data set [4], 49.1 µM; in data set [5], over 100 µM; in data set [6] it was over 100 µM. For `CC(C)(CO)CCCCCC(=O)CCCCCC(C)(C)CO` [D], in data set [1], the IC50 is 5.39 µM.

As to `CC(C)(CCCCCCC(=O)CCCCCCC(C)(C)C(=O)O)C(=O)O` [E], in data set [1], the IC50 was 0.35 µM. The same measure, in the same setting: as for `CC(C)(CCCCCCCCCCCC(C)(C)C(=O)O)C(=O)O` [F], the figure is under 0.3 µM.

`CC(C)(CCCc1ccc(CCCC(C)(C)C(=O)O)cc1)C(=O)O` [III-1, 5,5′-(1,4-phenylene)bis(2,2-dimethylpentanoic acid)]: the IC50 in data set [1] is 27.7 µM.
